Laboratory results published in patent US20200062696A1, “COMPOSITIONS AND METHODS FOR INHIBITING RETICULON 4” (THE REGENTS OF THE UNIVERSITY OF CALIFORNIA, priority 2017, published 2020).
Entries after “also recorded” stand apart in the source; their conditions may differ.

How the values were obtained:
[1] = system: U2OS cells expressing GFP-tagged Sec61β; assay: ER morphology by fluorescence microscopy in U2OS cells expressing GFP-Sec61β; format: cell-based; details: DKM 3-30 50 μM (8 hr, 16 hr, time-lapse); AMR 1-125 1 μM; YP 1-46 50 μM
Description: Fluorescence microscopy. SW620 and U2OS cells were transiently transfected with a plasmid encoding GFP-tagged Sec61β using fuGENE6 (Roche) according to the manufacturer's instructions. Transfected cells plated on poly-L-lysine treated coverslips were treated, washed in PBS, and fixed by incubation in 4% paraformaldehyde in PBS for 10 min. Fixed cells were washed extensively in PBS and nuclei stained by addition of 4′,6-diamidino-2-phenylindole (DAPI) (Thermo Fisher Scientific) for 10 min. Coverslips were mounted using Fluoromount-G (SouthernBiotech) and visualized using a DeltaVision Elite microscope outfitted with a 60× oil immersion objective. Acquired stacks of images of fixed cells were deconvolved and analyzed using SoftWoRx and ImageJ. For time-lapse imaging of live cells, transfected cells were plated on poly-L-lysine treated glass-bottom 4-well imaging chambers (Lab-Tek II; Thermo Fisher Scientific). Imaging was performed using a DeltaVision Elite microscope encased in a chamber that was maintained at 37° C. and was continuously perfused with humidified 5% CO2. Acquired images were analyzed using SoftWoRx and ImageJ.

[2] = system: SW620 colorectal cancer cells; assay: Serum-free cell survival of SW620 cells (Hoescht staining); format: cell-based; details: 50 μM, 24 h
[3] = system: U2OS osteosarcoma cells; assay: Serum-free cell survival of U2OS cells; format: cell-based; details: 50 μM, 48 h
Description: (§1) FIGS. 11A-11C. DKM 3-30 and analogs. (FIG. 11A) Structures of DKM 3-30 and analogs. (FIG. 11B) Gel-based ABPP analysis showing competition side-by-side competition studies of DKM 3-30, YP 1-46, and AMR 1-125 against IA-rhodamine labelling of pure human RTN4. Shown are the 50% inhibitory concentration (IC50) values for each compound. (FIG. 11C) Serum-free cell survival of U2OS (48 h) or SW620 (24 h) cells treated with DMSO vehicle or each compound (50 μM). Data in (C) are presented as mean±sem. Significance is expressed as *p<0.001 compared to vehicle-treated controls.
(§2) Cell Culture. SW620 cells were purchased from ATCC. SW620 cells were grown in L-15 media with 10% fetal bovine serum (FBS) in ambient CO2. U2OS cells were grown in DMEM media supplemented with 10% FBS at 37° C. with 5% CO2.
(§3) Survival and Proliferation Assays. Cells were plated the evening before the experiment, and allowed to adhere overnight. For serum-free cell survival assays, cells were plated in media not containing FBS. For cell proliferation assays, cells were plated in regular media. For the chemical genetics screen, cells were treated with either DMSO or the cysteine-reactive fragment for 48 h and cell viability was assessed by Hoescht stain using our previously described methods

[4] = target: T1, pure human RTN4 protein (Homo sapiens, UniProt Q9NQC3); assay: Gel-based ABPP competition against IAyne labeling of pure human RTN4 protein; format: binding
T1 construct: purchased Fisher Scientific
T1 sequence (Q9NQC3 1-1192): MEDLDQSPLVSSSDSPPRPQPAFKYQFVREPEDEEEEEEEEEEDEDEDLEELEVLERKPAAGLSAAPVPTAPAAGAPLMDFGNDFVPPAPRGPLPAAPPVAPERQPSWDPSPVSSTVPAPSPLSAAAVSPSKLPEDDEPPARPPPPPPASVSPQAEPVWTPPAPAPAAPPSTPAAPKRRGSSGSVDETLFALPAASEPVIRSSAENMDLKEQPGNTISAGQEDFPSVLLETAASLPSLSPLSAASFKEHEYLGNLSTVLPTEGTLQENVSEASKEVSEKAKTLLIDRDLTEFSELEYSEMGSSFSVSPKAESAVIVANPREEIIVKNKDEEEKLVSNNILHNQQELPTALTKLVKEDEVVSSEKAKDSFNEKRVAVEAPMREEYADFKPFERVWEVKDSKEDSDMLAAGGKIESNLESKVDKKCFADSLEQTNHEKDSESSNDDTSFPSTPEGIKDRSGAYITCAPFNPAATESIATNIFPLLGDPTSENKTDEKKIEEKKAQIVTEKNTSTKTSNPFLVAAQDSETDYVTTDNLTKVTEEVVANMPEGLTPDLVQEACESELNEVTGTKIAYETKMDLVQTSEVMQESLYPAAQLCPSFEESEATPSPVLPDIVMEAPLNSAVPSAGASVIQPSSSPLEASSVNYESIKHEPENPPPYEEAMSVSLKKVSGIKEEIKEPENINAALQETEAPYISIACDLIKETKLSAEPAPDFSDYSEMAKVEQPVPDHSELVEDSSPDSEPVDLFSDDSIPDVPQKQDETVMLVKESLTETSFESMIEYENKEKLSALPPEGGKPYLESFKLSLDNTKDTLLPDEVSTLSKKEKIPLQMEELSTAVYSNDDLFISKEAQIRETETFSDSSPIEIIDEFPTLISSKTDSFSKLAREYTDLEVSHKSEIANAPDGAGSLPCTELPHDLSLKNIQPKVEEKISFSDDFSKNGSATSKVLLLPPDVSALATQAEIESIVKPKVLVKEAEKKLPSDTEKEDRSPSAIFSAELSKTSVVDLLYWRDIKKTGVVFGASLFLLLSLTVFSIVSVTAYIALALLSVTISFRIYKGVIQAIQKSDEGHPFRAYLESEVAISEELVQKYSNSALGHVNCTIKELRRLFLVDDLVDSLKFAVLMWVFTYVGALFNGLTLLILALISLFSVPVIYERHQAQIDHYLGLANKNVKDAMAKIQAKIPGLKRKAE
Description: as §1
Gel-Based ABPP. Gel-based ABPP methods were performed as previously described^24. Recombinant RTN4 (0.06 μg) protein (RTN4-Fisher Scientific) were pre-treated with DMSO or DKM 3-30, respectively, for 1 h at 37° C. in an incubation volume of 50 μL PBS, and were subsequently treated with IAyne (10 μM final concentration) for 30 min at 37° C. CuAAC was performed to append rhodamine-azide onto IAyne probe-labeled proteins. The samples were separated by SDS/PAGE and scanned using a ChemiDoc MP (Bio-Rad Laboratories, Inc). Inhibition of target labeling was assessed by densitometry using ImageStudio Light software.

[5] = system: SW620 colorectal cancer cells; assay: Serum-free cell survival of SW620 cells (Hoescht staining); format: cell-based; details: Homo sapiens, SW-620, cysteine-reactive fragment 50 μM, 48 h, vs DMSO, average of n = 3/group, read-out: SW620 survival Ave
Description: as §2, §3

[6] = system: SW620 colorectal cancer cells; assay: Cell proliferation of SW620 cells (Hoescht staining); format: cell-based; details: Homo sapiens, SW-620, cysteine-reactive fragment 50 μM, 48 h, vs DMSO, average of n = 3/group, read-out: SW620 proliferation Ave
Description: as §2, §3

SMILES	viability at 50 µM [5] [%]	activity at 50 µM [6] [%]	further results
C=CC(=O)Nc1ccc(Oc2ccc(C(C)(C)C)cc2)cc1 [AMR 1-125, N-(4-(4-(tert-butyl)phenoxy)phenyl)acrylamide]			ER morphology in U2OS cells [1]: impaired; also recorded: alters ER morphology; cell survival in SW620 cells [2]: impaired; cell survival in U2OS cells [3]: impaired; improved potency compared to DKM 3-30 ([4]; competition against probe labelling of pure human RTN4, from IC50 values of FIG. 11B): ~7 fold
C=CC(=O)N1CCC(C(=O)OCC)CC1 [DKM 2-120, Ethyl 1-acryloylpiperidine-4-carboxylate]	102	96	
C=CC(=O)NC(c1ccccc1)c1ccccc1 [DKM 3-4, N-benzhydrylacrylamide]	122	120	
C=CC(=O)N1CCN(c2ccccc2)CC1 [DKM 3-5, 1-(4-phenylpiperazin-1-yl)prop-2-en-1-one]	59	82	
C=CC(=O)Nc1ccc(C(C)=O)cc1 [DKM 3-7, N-(4-acetylphenyl)acrylamide]	51	100	
C=CC(=O)N1CCC(C)CC1 [DKM 3-8, 1-(4-methylpiperidin-1-yl)prop-2-en-1-one]	152	105	
C=CC(=O)NCC(OCC)OCC [DKM 3-9, N-(2,2-diethoxyethyl)acrylamide]	75	100	
C=CC(=O)Nc1ccc(SC)cc1 [DKM 3-10, N-(4-(methylthio)phenyl)acrylamide]	41	79	
C=CC(=O)N1CCC(C#N)CC1 [DKM 3-11, 1-acryloylpiperidine-4-carbonitrile]	120	118	
C=CC(=O)NCCCSC [DKM 3-12, N-(3-(methylthio)propyl)acrylamide]	129	106	
C=CC(=O)NCC1CCCCC1 [DKM 3-13, N-(cyclohexylmethyl)acrylamide]	77	94	
C=CC(=O)Nc1ccc(-c2ccc(CC)cc2)cc1 [DKM 3-16, N-(4′-ethyl-[1,1′-biphenyl]-4-yl)acrylamide]	34	60	
C=CC(=O)N1CCN(c2ccc(C(C)=O)cc2)CC1 [DKM 3-29, 1-(4-(4-acetylphenyl)piperazin-1-yl)prop-2-en-1-one]	79	121	
C=CC(=O)Nc1ccc(F)cc1 [DKM 3-31, N-(4-fluorophenyl)acrylamide]	65	99	
C=CC(=O)NC(C)CC (centres unmarked) [DKM 3-32, N-(sec-butyl)acrylamide]	70	95	
C=CC(=O)N1CCN(c2ccc(OC)cc2)CC1 [DKM 3-36, 1-(4-(4-methoxyphenyl)piperazin-1-yl)prop-2-en-1-one]	54	97	

SMILES	viability at 50 µM [5] [%]	activity at 50 µM [6] [%]	further results
C=CC(=O)NC(c1ccccc1)(c1ccccc1)c1ccccc1 [DKM 3-41, N-tritylacrylamide]	55	93	
C=CC(=O)NC/C=C(\C)CCC=C(C)C [DKM 3-42, (E)-N-(3,7-dimethylocta-2,6-dien-1-yl)acrylamide]	104	112	
C=CC(=O)NCc1ccc2c(c1)OCO2 [DKM 3-43, N-(benzo[d][1,3]dioxol-5-ylmethyl)acrylamide]	52	94	
C=CC(=O)N(c1ccccc1)c1ccccc1 [DKM 3-70, N,N-diphenylacrylamide]	57	53	
C=CC(=O)NCCCCCCCCCC [TRH 1-12, N-decylacrylamide]	49	89	
C=CC(=O)NCc1ccc(OC)cc1OC [TRH 1-13, N-(2,4-dimethoxybenzyl)acrylamide]	94	128	
C=CC(=O)Nc1ccccc1 [TRH 1-19, N-Phenylacrylamide]	101	119	
C=CC(=O)NC(C)c1ccccc1 (centres unmarked) [TRH 1-20, N-(1-phenylethyl)acrylamide]	114	121	
C=CC(=O)N1CCCCC1CC (centres unmarked) [TRH 1-27, 1-(2-ethylpiperidin-1-yl)prop-2-en-1-one]	144	125	
C=CC(=O)Nc1ccc(OC)cc1 [TRH 1-32, N-(4-methoxyphenyl)acrylamide]	55	100	
C=CC(=O)Nc1ccc(C(F)(F)F)cc1 [TRH 1-50, N-(4-(trifluoromethyl)phenyl)acrylamide]	58	76	
CCCN(C)C(=O)CCl [TRH 1-53, 2-Chloro-N-methyl-N-propylacetamide]	69	72	
C=CC(=O)NCc1ccccc1C [TRH 1-54, N-(2-methylbenzyl)acrylamide]	175	139	
Cc1ccccc1CNC(=O)CCl [TRH 1-55, 2-Chloro-N-(2-methylbenzyl)acetamide]	47	53	
C=CC(=O)Nc1ccc(Oc2ccc(OC)cc2)cc1 [YP 1-46, N-(4-(4-methoxyphenoxy)phenyl)acrylamide]			ER morphology in U2OS cells [1]: not; cell survival in U2OS cells [3]: not; displacement of IAyne labelling of RTN4 ([4]; pure human RTN4 protein, gel-based ABPP): less displacement
